Results reported in patent US9718825B2, “N-(4-(azaindazol-6-yl)-phenyl)-sulfonamides and their use as pharmaceuticals” (priority 2013, dated 2017).
Where two headings read alike, the source gives them in different places.

How the values were obtained:
[1] = system: SGK-1 dependent phosphorylation of GSK3beta in U2OS cells; assay: SGK-1 dependent phosphorylation of GSK3beta in U2OS cells overexpressing recombinant SGK-1 and GSK3beta; assay type: cell-based, human; conditions: U2OS cells, 6 h incubation, ratio of phosphorylated GSK3beta to total GSK3beta, read-out: IC50 values for inhibition of SGK-1 dependent phosphorylation of GSK3beta in U2OS cells
Protocol: B) Determination of the Effect on SGK-1 Dependent Phosphorylation of GSK3beta in U2OS Cells
U2OS cells were cultured in 1:1 Dulbecco modified Eagle medium/Ham's F12 and 10% heat-inactivated fetal calf serum (FCS Gold) at 37° C., 7% CO2 and 95% relative humidity. […] Cell suspension mixed with BacMam viruses was seeded in 96 well pCLEAR plates (Greiner) at 3×10^4 cells per well in 250 μl medium. […] 1 μl of a solution of the test compound at 250×final concentration was added. Cells are incubated at 37° C., 7% CO2 and 95% relative humidity. […] After removing the fixation solution, cells were permeabilised by adding 200 μl PBT (0.2% Triton X-100 in PBS) per well for 5 min. After removing PBT, cells were blocked by adding 200 μl of blocking solution (1% bovine serum albumine in PBS) per well. Blocking solution was removed and 50 μl of primary antibody (rabbit anti-phospho-GSK-3beta (Ser9), and mouse anti-GSK-3beta) were added for 1 h. […] After washing the cells 3 times with PBS, 200 μl of PBS were added. Fluorescence signals were measured with the ImageXpress MICRO (Molecular Devices).

[2] = target: recombinant human SGK-1 enzyme (Homo sapiens, UniProt O00141); assay: Enzymatic activity assay: SGK-1 substrate peptide phosphorylation (Caliper lab-chip mobility shift); assay type: biochemical
recombinant human SGK-1 enzyme, sequence (O00141 whole entry, looked up): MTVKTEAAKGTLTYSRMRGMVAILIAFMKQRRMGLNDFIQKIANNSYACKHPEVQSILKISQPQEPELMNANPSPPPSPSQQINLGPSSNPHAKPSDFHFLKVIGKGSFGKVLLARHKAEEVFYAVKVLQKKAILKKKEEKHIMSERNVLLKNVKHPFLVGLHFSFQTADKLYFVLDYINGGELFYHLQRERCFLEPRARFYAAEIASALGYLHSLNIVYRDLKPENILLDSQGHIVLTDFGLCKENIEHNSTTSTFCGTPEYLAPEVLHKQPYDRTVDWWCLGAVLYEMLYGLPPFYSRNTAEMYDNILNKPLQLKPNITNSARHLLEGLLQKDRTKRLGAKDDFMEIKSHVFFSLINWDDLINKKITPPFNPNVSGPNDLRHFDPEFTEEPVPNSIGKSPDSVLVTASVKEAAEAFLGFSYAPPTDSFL
Protocol: In one of the cellular assays, the SGK-1 dependent phosphorylation of glycogen synthase kinase 3beta (GSK3beta) in U2OS cells was measured, in another one, a functional electrophysiological assay, the SGK-1 dependent activation of epithelial Na^+ channel (ENaC) currents in A6 cell monolayers, and in another one chondrocyte hypertrophic differentiation in mouse chondrogenic ATDC5 cells.
A) Enzymatic Activity Assay
For the determination of the compound dose response, a 10 mM DMSO stock solution was diluted and tested in a ten-point, three-fold dilution series run in duplicate beginning at 30 μM final concentration. Data were analyzed using a four-parameter curve fit with a fixed minimum and maximum experimentally defined as the average positive and negative controls on each plate.

[3] = peptide substrate 1 μM, ATP 10 μM, 60 min at 37° C., read-out: IC50 values for inhibition of SGK-1 enzymatic activity

| Compound | IC50 [1] [nM] | IC50 [2, 3] [nM] | IC50 ([1]; Homo sapiens) [nM] | IC50 ([2]; read-out: IC50 values for inhibition of SGK-1 enzymatic activity, peptide substrate 1 μM, ATP 10 μM, 60 min at 37° C.) [nM] |
| --- | --- | --- | --- | --- |
| O=S(=O)(Nc1ccc(-c2nc(OC3CNC3)c3cn[nH]c3n2)cc1F)c1cc(Cl)ccc1F [Example 442] | 1300 | 29 | – | – |
| Cc1n[nH]c2nc(-c3ccc(NS(=O)(=O)c4ccccc4F)cc3)nc(OC3CCCNC3)c12 (stereo not shown) [Example 323] | 100 | 12 | – | – |
| Cc1ccc(F)c(S(=O)(=O)Nc2ccc(-c3nc(OCCC(N)=O)c4cn[nH]c4n3)cc2)c1 [Example 116] | 4800 | < 1.5 | – | – |
| COc1ccc(F)c(S(=O)(=O)Nc2ccc(-c3nc(OCC4CNCCO4)c4cn[nH]c4n3)cc2)c1 (stereo not shown) [Example 309] | 160 | 2.8 | – | – |
| O=S(=O)(Nc1ccc(-c2nc(O[C@@H]3CCCC[C@@H]3O)c3cn[nH]c3n2)cc1)c1cc(Cl)ccc1F (racemic) [Example 81] | 1700 | 11 | – | – |
| Cc1ccc(F)c(S(=O)(=O)Nc2ccc(-c3nc(OC4CCCNC4)c4c(C)n[nH]c4n3)cc2)c1 (stereo not shown) [Example 338] | 44 | 1.6 | – | – |
| Cc1n[nH]c2nc(-c3ccc(NS(=O)(=O)c4cc(F)ccc4C#N)cc3)nc(OC3CCC(O)CC3)c12 (stereo not shown) [Example 131] | 2600 | 4.9 | – | – |
| Cc1ccc(C#N)cc1S(=O)(=O)Nc1ccc(-c2nc(C)c3c(N)n[nH]c3n2)cc1 [Example 473] | 8200 | 32 | – | – |
| O=S(=O)(Nc1ccc(-c2nc(Oc3cccnc3)c3cn[nH]c3n2)cc1)c1cc(Cl)ccc1F [Example 26] | 2600 | < 1.2 | – | – |
| Cc1n[nH]c2nc(-c3ccc(NS(=O)(=O)c4cc(Cl)ccc4C#N)cc3)nc(OC3CCNCC3F)c12 (stereo not shown) [Example 299] | 410 | 3.3 | – | – |
| O=S(=O)(Nc1ccc(-c2nc(N3CCNCC3)c3cn[nH]c3n2)cc1)c1cc(Cl)ccc1Cl [Example 17] | 810 | < 1.2 | – | – |
| COc1ccc(Cl)c(S(=O)(=O)Nc2ccc(-c3nc(C)c4cn[nH]c4n3)cc2)c1 [Example 491] | 2000 | 1.8 | – | – |
| COc1ccc(F)c(S(=O)(=O)Nc2ccc(-c3nc(OC)c4cn[nH]c4n3)cc2)c1 [Example 144] | 55 | 3.5 | – | – |
| Cc1ccc(C#N)c(S(=O)(=O)Nc2ccc(-c3nc(OCC4CNCCO4)c4cn[nH]c4n3)cc2)c1 (stereo not shown) [Example 315] | 600 | 7.9 | – | – |
| Nc1n[nH]c2nc(-c3ccc(NS(=O)(=O)c4cc(Cl)sc4Cl)cc3)ncc12 [Example 463] | 120 | 2.5 | – | – |
| COc1ccc(Cl)c(S(=O)(=O)Nc2ccc(-c3nc(OCCC(N)=O)c4cn[nH]c4n3)cc2)c1 [Example 117] | 6800 | 2.3 | – | – |
| O=S(=O)(Nc1ccc(-c2nc(OC3CCC(O)C3)c3cn[nH]c3n2)cc1)c1cc(Cl)ccc1Cl (stereo not shown) [Example 60] | 480 | 4 | – | – |
| O=S(=O)(Nc1ccc(-c2nc(C3CC3)c3cn[nH]c3n2)cc1)c1cc(Cl)ccc1F [Example 141] | 150 | 6.5 | – | – |
| Cc1ccc(C#N)c(S(=O)(=O)Nc2ccc(-c3nc(OC4CCCNC4)c4c(C)n[nH]c4n3)cc2)c1 (stereo not shown) [Example 320] | 57 | 3.7 | – | – |
| COCCc1nc(-c2ccc(NS(=O)(=O)c3cc(C)ccc3F)cc2)nc2[nH]nc(N)c12 [Example 503] | 630 | 29 | – | – |
| N#Cc1ccc(Cl)cc1S(=O)(=O)Nc1ccc(-c2nc(OCC(F)(F)F)c3c(N)n[nH]c3n2)cc1 [Example 196] | 330 | 4.6 | – | – |
| O=S(=O)(Nc1ccc(-c2nc(OCC3CNCCO3)c3cn[nH]c3n2)cc1)c1cc(Cl)ccc1Cl (stereo not shown) [Example 312] | 130 | 6 | – | – |
| O=S(=O)(Nc1ccc(-c2nc(N3CCNCC3)c3cn[nH]c3n2)cc1)c1cc(Cl)ccc1F [Example 16] | 950 | < 1.2 | – | – |
| COc1ccc(Cl)c(S(=O)(=O)Nc2ccc(-c3nc(N4CC(CO)C4)c4cn[nH]c4n3)cc2)c1 [Example 110] | 5100 | 14 | – | – |
| O=S(=O)(Nc1ccc(-c2nc(N3CCC(O)CC3)c3cn[nH]c3n2)cc1)c1cc(Cl)ccc1Cl [Example 74] | 1200 | 5.5 | – | – |

| Compound | IC50 [1] [nM] | IC50 [2, 3] [nM] | IC50 ([1]; Homo sapiens) [nM] | IC50 ([2]; read-out: IC50 values for inhibition of SGK-1 enzymatic activity, peptide substrate 1 μM, ATP 10 μM, 60 min at 37° C.) [nM] |
| --- | --- | --- | --- | --- |
| Cc1ccc(F)c(S(=O)(=O)Nc2ccc(-c3nc(OCC4O[C@H](O)[C@H](O)[C@@H](O)[C@@H]4O)c4cn[nH]c4n3)cc2)c1 (stereo partly shown) [Example 123] | 30000 | 9.9 | – | – |
| O=S(=O)(Nc1ccc(-c2nc(O[C@H]3CCCC(O)C3)c3cn[nH]c3n2)cc1)c1cc(Cl)ccc1F (stereo partly shown) [Example 84] | 1200 | 3.2 | – | – |
| Cc1nc(-c2ccc(NS(=O)(=O)c3cc4c(cc3Br)OCCCO4)cc2)nc2[nH]nc(N)c12 [Example 477] | 4500 | 4.8 | – | – |
| COc1cc(-c2ncc3c(C)n[nH]c3n2)ccc1NS(=O)(=O)c1cc(Cl)ccc1Cl [Example 534, 2,5-Dichloro-N-[2-methoxy-4-(3-methyl-1H-pyrazolo[3,4-d]pyrimidin-6-yl)-phenyl]-benzenesulfonamide] | – | – | 350 | < 1.5 |
| CC(C)COc1nc(-c2ccc(NS(=O)(=O)c3cc(Cl)ccc3F)cc2)nc2[nH]nc(N)c12 [Example 334] | 720 | 20 | – | – |
| Cc1n[nH]c2nc(-c3ccc(NS(=O)(=O)c4cc(Cl)ccc4Cl)cc3)nc(OCC3CNCCO3)c12 (stereo not shown) [Example 313] | 47 | 2 | – | – |
| NCCCOc1nc(-c2ccc(NS(=O)(=O)c3cc(F)ccc3F)cc2)nc2[nH]ncc12 [Example 199] | 640 | 26 | – | – |
| Nc1n[nH]c2nc(-c3ccc(NS(=O)(=O)c4cc(F)c(F)cc4Cl)cc3)ncc12 [Example 514] | 270 | 250 | – | – |
| N#Cc1c(Cl)cccc1S(=O)(=O)Nc1ccc(-c2ncc3c(N)n[nH]c3n2)cc1 [Example 456] | 8900 | 6.2 | – | – |
| Cc1n[nH]c2nc(-c3ccc(NS(=O)(=O)c4cc(Cl)ccc4F)cc3)ncc12 [Example 10] | 430 | < 1.2 | – | – |
| COCCc1nc(-c2ccc(NS(=O)(=O)c3cc(C)ccc3C#N)cc2)nc2[nH]nc(N)c12 [Example 513] | 300 | 68 | – | – |
| Cc1ccc(C#N)c(S(=O)(=O)Nc2ccc(-c3nc(C4CC4)c4cn[nH]c4n3)cc2)c1 [Example 145] | 350 | 4.1 | – | – |
| COCCc1nc(-c2ccc(NS(=O)(=O)c3cc(OC)ccc3Cl)cc2)nc2[nH]nc(N)c12 [Example 502] | 420 | 18 | – | – |
| COCCc1nc(-c2ccc(NS(=O)(=O)c3cc(Cl)sc3Cl)cc2)nc2[nH]nc(N)c12 [Example 509] | 2500 | 310 | – | – |
| COc1ccc(F)c(S(=O)(=O)Nc2ccc(-c3nc(OC4CCCNC4)c4c(C)n[nH]c4n3)cc2)c1 (stereo not shown) [Example 294] | 270 | 3.5 | – | – |
| CC(C)COc1nc(-c2ccc(NS(=O)(=O)c3cc(Cl)sc3Cl)cc2)nc2[nH]nc(N)c12 [Example 330] | 230 | 100 | – | – |
| Cc1nc(-c2ccc(NS(=O)(=O)c3cc(Cl)ccc3F)cc2)nc2[nH]nc(N)c12 [Example 466] | 260 | < 1.5 | – | – |
| Cc1ccc(C#N)c(S(=O)(=O)Nc2ccc(-c3nc(OCC4CNC(=O)C4)c4cn[nH]c4n3)cc2)c1 (stereo not shown) [Example 125] | 12000 | 2 | – | – |
| O=S(=O)(Nc1ccc(-c2nc(N[C@H]3CC[C@@H](O)CC3)c3cn[nH]c3n2)cc1)c1cc(Cl)ccc1Cl [Example 78] | 2600 | 3.6 | – | – |
| Cc1n[nH]c2nc(-c3ccc(NS(=O)(=O)c4ccccc4F)cc3)nc(OCC3CNCCO3)c12 (stereo not shown) [Example 289] | 200 | 23 | – | – |
| O=S(=O)(Nc1ccc(-c2nc(Oc3cccnc3)c3cn[nH]c3n2)cc1)c1cc(Cl)ccc1Cl [Example 27] | 1900 | < 1.2 | – | – |
| COCCc1nc(-c2ccc(NS(=O)(=O)c3cc(OC)ccc3F)cc2)nc2[nH]nc(N)c12 [Example 504] | 300 | 12 | – | – |
| O=S(=O)(Nc1ccc(-c2nc(N3CC(CO)C3)c3cn[nH]c3n2)cc1F)c1cc(Cl)ccc1F [Example 441] | 11000 | 21 | – | – |
| O=S(=O)(Nc1ccc(-c2nc(OC3CNC3)c3cn[nH]c3n2)cc1)c1cc(Cl)ccc1Cl [Example 190] | 120 | 4.7 | – | – |
| CC(C)COc1nc(-c2ccc(NS(=O)(=O)c3ccccc3Cl)cc2)nc2[nH]nc(N)c12 [Example 316] | 270 | 480 | – | – |
